Reference: a melting point compilation (Tetko et al.; mined from patent text by program, amines drawn as free bases though some values may be those of a salt)

Compound | melting point
CCN1C(=O)CC(C(=O)O)C1c1ccccc1 (centres undefined) | 151 to 156 °C
COc1nc2cc(Br)cc(C=O)c2nc1OC | 179 to 182 °C
NC(=O)c1cc(-c2c[nH]nc2-c2ccc(F)cc2)ccn1 | 230 to 231 °C
O=c1ccn2c3ccccc3c3cc(Cl)cc1c32 | 158 to 159 °C
CCOC(=O)Cc1nnc(NS(=O)(=O)c2ccc(NC(C)=O)cc2)s1 | 156 to 157 °C
Oc1ccc(-c2n[nH]c3c2Cc2ccccc2-3)cc1 | 266 to 268 °C
O=C(O)CCC1(c2ccc(Cl)c(Cl)c2)CCC(=O)NC1=O (single isomer, unassigned; (+)) | 201 °C
CCN(S(=O)(=O)NC(=O)N1N=C(C)CC1c1ccccc1)S(=O)(=O)N(C)C (centres undefined) | 138 to 139 °C
O=C(O)C=CC(=O)NCCC(=O)O | 150 to 152 °C
CCNc1ccc(C(N)=O)cc1[N+](=O)[O-] | 226 °C
CC(C)(C)c1ccc(C(=O)CCCN2CCC(C(=O)c3nc4ccccc4n3Cc3ccc(F)cc3)CC2)cc1 | 105 to 106 °C
COc1ccc(-c2cnc(NC(=S)Cc3ccccc3)c(Cc3ccccc3)n2)cc1 | 45 to 47 °C
COc1cc(C(O)P(=O)(OC)OC)cc(OC)c1OC (centres undefined) | 103 to 104 °C
O=C(O)c1ccc2c(c1)C1(c3ccccc3-2)c2ccccc2-c2ccc(C(=O)O)cc21 | 352 °C
CC(C)CN(Cc1ccccc1)c1ncnc2c1ncn2C1CCCCO1 (centres undefined) | 93 to 95 °C
O=C1CCn2c(Cc3ccc(Cl)cc3)nc3c(Cl)ccc1c32 | 167 °C
Cn1c(C(=O)O)c(-c2ccc(F)cc2)c2ccsc2c1=O | 205 °C
CCOC(=O)c1cn(-c2ccc(F)cc2F)c2nc(SCC)c(F)cc2c1=O | 170 to 171 °C
O[C@H](COc1cccc2[nH]ccc12)CN1CCC(c2c[nH]c3ccc(F)cc23)CC1 | 94 to 97 °C
COC(=O)c1ccc2c(c1)SCCCC2=O | 63 to 64 °C
c1ccc(-c2cccc(-n3cnc4cc(-n5cccc5)ccc43)c2)nc1 | 147 to 148 °C
CS(=O)(=O)OCCC1=C(CCOS(C)(=O)=O)c2ccccc2Sc2ccccc21 | 107 to 108 °C
CCC(CC)c1ccc(Cl)c2nc3n(c12)CCCCN3c1ccc(Cl)cc1Cl | 160 to 162 °C

Compound | melting point
C=CC(=O)OCCOc1ccc(C(=O)C(C)(C)OC(=O)C=C)cc1 | 71 °C
CCSC=C1SC(=O)N(CCCCSc2cccc3nccn23)C1=O | 159 to 160 °C
N#CC(=C1C=CC(=NOC(=O)C(Cl)(Cl)Cl)C=C1)c1ccccc1 | 147 to 148 °C
COc1cc(C)nc(NC(=O)NS(=O)(=O)c2c(C)nn(C)c2S(=O)(=O)N(C)C)n1 | 215 to 217 °C
Cc1ccn(-c2ccc(C(=O)N3Cc4ccnn4Cc4ccccc43)c(Cl)c2)n1 | 187 to 188 °C
CCSCc1cc2cc(CN3CCOCC3)cc3c(=O)c(C(=O)NCc4ccc(Cl)cc4)cn1c23 | 177 to 178 °C
Nc1cc(Cl)c(Oc2ccc(Cl)cc2)cc1C(=O)O | 160 to 170 °C
CCN1CCN(c2ccc(Nc3cc(-c4cccc(-n5ncc6cc(C(C)(C)C)cc(F)c6c5=O)c4CO)nn(C)c3=O)nc2)CC1 | 245 to 247 °C
O=c1ccn(CCO)c(C(O)c2cccnc2)c1O (centres undefined) | 189 to 190 °C
O=S(=O)(NCc1ccnc2ccccc12)c1ccc(-c2ccc(Cl)cc2)s1 | 185 to 186 °C
c1ccc(OCCSCc2nnc(-c3ccc(OCCCN4CCCC4)cc3)o2)cc1 | 70 °C
O=C1c2ccccc2C(=O)N1CCN(OCc1ccccc1)C(=S)Nc1c(F)cccc1F | 141 to 143 °C
C=CC[C@H]1C(=O)N(S(=O)(=O)c2cccc(S(=O)(=O)N(C)C)c2)[C@H]2CCN(C(=O)OCc3ccccc3)[C@H]12 (relative stereo) | 70 to 75 °C
O=C(O)/C=C\C(=O)N1CCc2cc(S(=O)(=O)N3CCN(c4cccc(Cl)c4)CC3)ccc21 | 191 to 192 °C
COC1(C)CN(c2ccc(N3C[C@H](CNC(C)=O)OC3=O)cc2F)C1 | 113 to 114 °C
COc1ccc(NC(=O)OCC2(COC(=O)Nc3ccc(OC)cc3)CSc3ccccc3C2=O)cc1 | 58 to 63 °C
COc1ccc(COc2ccc3c(c2)OC(C)(C)C3c2ccc(C(C)C)cc2)cc1 (centres undefined) | 86 to 88 °C
CCCC(=O)C1=C(O)CC(c2c(C)c(C)c(C)c3ccoc23)CC1=O (centres undefined) | 130 °C
N#Cc1cnn(-c2ccc(Cl)c(Cl)c2Cl)c1N(C(=O)Oc1ccccc1)C(=O)Oc1ccccc1 | 206 to 208 °C
O=c1cc(Cl)cnn1CC1CCCCC1 | 81.6 to 81.8 °C
CC(C)n1cc(-c2cccc(Cl)c2)c2ncccc2c1=O | 164 °C
O=C(Nc1nccs1)c1nc(-c2ccc(N3CCCCCC3)cc2)[nH]c1-c1ccc(Cl)cc1 | 246 to 247 °C
CN(C)CCCc1nc2ccccc2[nH]1 | 117 to 119 °C

Compound | melting point
CSCN(C)C(=O)Nc1ccc(Cl)c(Cl)c1 | 103 °C
Clc1nc(C2=NCCN2)[nH]c1Cl | 260 °C
CCCCCCCCOc1ccc(-c2ncc(Br)cn2)cn1 | 99 to 101 °C
COc1ccc(C(=O)c2cc(F)ccc2F)c(O)c1 | 109 °C
CC(C)NC(=S)NC(=O)c1ccc(C#N)cc1 | 156 to 157 °C
O=c1[nH]c2cc([N+](=O)[O-])ccc2c(=O)n1CCCN1CC=C(c2ccc(Cl)cc2)CC1 | 210 to 212 °C
O=C(NCCO)c1cccc(-c2ccc3c(c2)N(c2cccc(Cl)c2Cl)CC3)c1 | 162 to 163 °C
O=[N+]([O-])c1ccc(-n2cnc(CO)c2)c(F)c1 | 157 to 159 °C
COc1ccc(-c2ccc3c(c2)C=C(C(=O)Nc2ccc(CN(C)C4CCC(=O)CC4)cc2)CCS3)cc1 | 133 to 139 °C
COC(=O)c1cc(OC)c([N+](=O)[O-])cc1N | 127 to 129 °C
Cc1ccc(C(=O)C(O)[C@H]2OC[C@@H](n3cc(I)c(=O)n(C(=O)c4ccc(C)cc4)c3=O)O2)cc1 (some centres undefined) | 166 to 168 °C
CCOC(=O)c1ccc(-c2ccc(C(C)O)cc2)cc1 (single isomer, unassigned; (+)) | 74.6 °C
CCOC=C1C(=S)c2cc(C)ccc2OC1c1ccccc1 (centres undefined) | 140 to 142 °C
O=C(O)COc1cccc2c1Cc1sc(SC(c3ccccc3)c3ccccc3)nc1-2 | 224 to 225 °C
O=C1CNc2ncc(I)cc2N1Cc1cc(C(F)(F)F)ccc1Cl | 252 to 253 °C
CNC(=C[N+](=O)[O-])NCCCCc1ccccn1 | 90 to 91 °C
Fc1ccc(-c2nn3c(c2-c2ccncc2)NCCC3)cc1 | 207 to 209 °C
C[C@@](O)(CO)COc1cccc(-c2noc3ccsc23)c1 | 97 to 98 °C
CCOC(=O)NC(=O)C(c1cccc(C)c1)c1ncc(C(F)(F)F)cc1Cl (centres undefined) | 146 to 147 °C
O=C(Nc1cc2nc(-c3ccc(C(=O)C4CCCCC4)cc3)[nH]c2cn1)c1ccccn1 | 258 °C
CCCc1ccc(C(=O)O)cc1[N+](=O)[O-] | 106 to 109 °C
COc1ccccc1-n1nnc2cc(F)c(N3C(=O)C4=C(CCCC4)C3=O)cc21 | 83 to 87 °C
Cc1cccc(-c2[nH]c(C(C)C)nc2-c2cccc(-c3ccc4c(c3)C=CS4(=O)=O)c2)n1 | 137 to 138 °C
